# From PMC12505902, “Inhibitors of trehalose-6-phosphate synthase activity in fungal pathogens compromise thermal tolerance pathways” (mBio, 2025)
# Read-outs that look alike come from different tables or passages of the source.
# Test system: C. albicans (SC5314)
# Experiment: MIC dose-response assay in YPD
# Type: cell-based
# Description: We tested the effects of 4456dh on live cells by determining the minimal inhibitory concentration causing 80% growth reduction (MIC80). […] The MIC80 increased at 30°C to greater than 13 mM (Fig. S7A).
# Fig 4 4456dh inhibits the growth of Candida and Cryptococcus species. […] 4456dh was administered at the concentrations indicated. Cultures were grown in YPD at the listed temperatures for 48 hours for Candida species and 72 hours for Cryptococcus species. Experimental temperatures reflect the temperatures at which the fungi experience heat stress. Left: relative growth of treated samples was calculated by averaging technical triplicates and normalizing the OD600 of each treated well to the average OD600 of the untreated WT controls, after the absorbance due to the compound was subtracted. The MIC80 values, calculated based on the OD600 values, are indicated in the white text on each heat map. Right: representative spot assays show the ability of cells to grow after exposure to 4456dh and indicate fungicidal activity of 4456dh. […]
# 102 determined by identifying the inflection point of the derivative data.
# 103 Tps1 Enzyme Activity Assay
# 104 The catalytic activity of C. albicans Tps1 and C. neoformans Tps1 was measured via a continuous
# 105 enzyme- coupled assay as previously reported ( 4) . […]
# 110 bottomed 96-well microtiter plates and the decrease in absorbance at 340 nm during the initial
# 111 reaction rate was recorded using a plate reader (Tecan). The decrease in absorbance was
# 112 analyzed for the first 200s of the kinetic reaction. […]
# 116 the overnight cultures was quantified by measuring the OD600 and corrected for the background
# 117 absorbance of the medium. Antifungal potency for 4456dh was assessed by minimum inhibitory […]
# 124 technical replicates. Growth, as determined by a reading of absorbance at 600 nm, was
# 125 normalized to untreated controls and was corrected for the absorbance of 4456dh in the YPD […]
# 129 overnight cultures was quantified by measuring the OD600 and corrected for the background
# 130 absorbance of the medium. Antifungal potency for 4456dh was assessed by minimum inhibitory […]
compound,measurement,setting,value
Cn1cc(-c2csc(NC(=O)Cc3ccccn3)n2)cn1 [Compound 4456dh],MIC80,"30°C, YPD",no MIC was detected
same,MIC80,"Candida albicans, SC5314, 42°C, YPD, 48 hours, read-out: MIC80",13 mM
same,MIC80,"Candida albicans, SC5314, Supplemental Table 5, This publication, read-out: MIC80",5160 µg/mL
